Laboratory results as given in patent publication US20130029964A1, “[5, 6] HETEROCYCLIC COMPOUND” (DAIICHI SANKYO COMPANY, LIMITED, priority 2010, published 2013).

Tested on: ST2 cells, murine bone marrow-derived stromal cells
Assay: Osteoblast differentiation test (ALP activity)
Assay type: cell-based
Details: Mus musculus, ST-2, 96 h, at 0.1 μg/mL, control group (0.1% DMSO) = 100%, four days of culturing, read-out: alkaline phosphatase activity
Protocol: ST2 cells, murine bone marrow-derived stromal cells, (obtained from RIKEN) were used.
In this test, α-MEM media (obtained from GIBCO BRL Cat. No. 10370-021) containing 10% (v/v) of inactivated calf serum (obtained from Hyclone Laboratories, Inc.) and 1% (v/v) of Penicillin-Streptomycin Liquid (obtained from GIBCO BRL Cat. No. 15140-122) (hereinbelow, abbreviated as 10%-FBS-αMEM) were used. In this test, all culturing was performed in a CO2 incubator (37° C., 95% humidity, 5% CO2).
The aforementioned cells were detached with 2 mL of a 0.25% trypsin solution (obtained from GIBCO BRL Cat. No. 15050-065) and dispersed in 10 mL of 10%-FBS-αMEM. Subsequently, the cells were collected by centrifugation (25° C., 800 rpm, five minutes). Then, a cell suspension containing 40000 of the cells/mL of 10%-FBS-αMEM was prepared. The cell suspension was then dispensed into 96-well plates (the product of Falcon), 100 μL per well, at a density of 4000 cells/well, followed by culturing for 24 hours. To the wells, except for the below-described well containing a control group, the compound was dispensed at final concentrations of 0.01, 0.03, 0.1, and 0.3 μg/ml. To the well of a control group, DMSO was dispensed at a final concentration of 0.1% (v/v). After four days of culturing, the activity of alkaline phosphatase (ALP) was measured in each group.
The measurement of ALP activity was performed as follows. That is, the medium in each well of the culture plates was completely removed. Each well was then washed by dispensing 100 μL of Dulbecco's phosphate buffer (obtained from GIBCO BRL Cat. No. 14190-144) and then removing it. A cell lysate solution containing 10 mM MgCl2 and 2% (v/v) TritonX-100 (Sigma) was prepared and dispensed at 50 μL/well, followed by stirring at room temperature for five minutes. An ALP substrate solution containing 50 mM diethanolamine (Wako Pure Chemical Industries, Ltd., Cat. No. 099-03112) and 20 mM p-nitrophenyl phosphate (Wako Pure Chemical Industries, Ltd., Cat. No. 147-02343) was prepared and dispensed at 50 μL/well, and the plates were left to stand at room temperature for 10 minutes. Subsequently, absorbance was measured by a microplate reader (Bio-Rad Laboratories, Inc.). Setting the measurement value of the control group of each plate at 100%, alkaline phosphatase activity (increase (%)) in the test compound-addition group was calculated, which was assessed as the degree of osteoblast differentiation.

| SMILES | activity at 0.1 µg/mL |
| --- | --- |
| c1cc(-c2ccn3c(-c4ccc(OCCOC5CCOCC5)cc4)cnc3c2)ccn1 [Example 74] | ≥ 200% |
| COc1ccc2ncc(-c3ccc(OCCOC4CCOCC4)cc3)n2c1 [Example 20, 6-Methoxy-3-{4-[2-(tetrahydro-2H-pyran-4-yloxy)ethoxy]phenyl}imidazo[1,2-a]pyridine] | ≥ 200% |
